By IC50 is commonly meant the midpoint of a concentration-inhibition curve. A higher IC50 goes with a need for much substance. As usually defined, the melting point is the temperature, or range, at which the solid turns liquid.

The results in this text go back to patent publication US6930185B2, “Melanin-concentrating hormone antagonist” (Takeda Chemical Industries, Ltd., priority 2000, dated 2005).

The structures appear in SMILES notation.

In the first series the target is SLC-1 (UniProt Q99705). Put plainly: Determination of antagonist activity using GTPγS binding assay. It counts as biochemical, human/rat. To be noted: inhibition of MCH-stimulated [35S]-Guanosine 5′-(γ-thio) triphosphate binding, SLC-1 expressing CHO cell membrane fractions. On the procedure:
Determination of Antagonist Activity Using GTPYS Binding Assay of Test Compound
Membrane fraction was prepared by the following method, using the human SLC-1 expressing CHO cell clone 57 obtained in Reference Example 1-10, and the rat SLC-1 expressing CHO cell clone 44 obtained in Reference Example 1-4.
The human and rat SLC-1 expressing CHO cells (1×10^8) were scraped in buffer saline phosphate (pH 7.4) to which 5 mM EDTA (ethylenediaminetetraacetic acid) had been added, and centrifuged. 10 ml of homogenized buffer (10 mM NaHCO3, 5 mM EDTA, pH 7.5) was added to the cell pellets, and they were homogenized using a Polytron homogenizer. […]
After this reaction mixture was allowed to react for 1 hour under stirring, it was filtered under vacuum using a glass filter (GF-C), then the filter was washed 3 times with 300 μl of washing solution (50 mM Tris-HCl buffer solution pH 7.5). […] of liquid scintillator was added to the glass filter, and residual radioactivity was determined using a liquid scintillation counter.
The IC50 value of the compound was calculated from the binding inhibition rate (%), based on the definition that the binding inhibition rate (%)=(radioactivity when compound and MCH were added−radioactivity when DMSO solution was added)/(radioactivity when MCH was added−radioactivity when DMSO solution was added)×100.
Compound `CN(C)Cc1ccc2cc(NC(=O)c3ccc(-c4ccc(Cl)cc4)cc3)ccc2c1` [Example 1, 4′-Chloro-N-[6-[(N,N-dimethylamino)methyl]-2-naphthyl][1,1′-biphenyl]-4-carboxamide] registered an IC50 of 5 nM.

System in a further series: not given
Assay: not given
Settings: not given
As to `CN(C)Cc1ccc2cc(NC(=O)c3ccc(-c4ccc(Cl)cc4)cc3)ccc2c1` [Example 1, 4′-Chloro-N-[6-[(N,N-dimethylamino)methyl]-2-naphthyl][1,1′-biphenyl]-4-carboxamide], the melting point was 230 to 231 °C.

As to `CC(C)N(Cc1ccc2cc(NC(=O)c3ccc(-c4ccc(Cl)cc4)cc3)ccc2c1)C(C)C` [Example 124, 4′-Chloro-N-[6-[(diisopropylamino)methyl]-2-naphthyl][1,1′-biphenyl]-4-carboxamide], the melting point was 246 to 250 °C.

On to `CC(C)N(Cc1ccc2cc(NC(=O)c3ccc(-c4ccccc4)cc3)ccc2n1)C(C)C` [Example 133, N-[2-[(Diisopropylamino)methyl]-6-quinolinyl][1-1′-biphenyl]-4-carboxamide], for which the melting point lay in the range of 208 to 209 °C.

`COc1ccc(-c2ccc(C(=O)Nc3ccc4nc(CN(C(C)C)C(C)C)ccc4c3)cc2)cc1` [Example 134, N-[2-[(Diisopropylamino)methyl]-6-quinolinyl]-4′-methoxy[1-1′-biphenyl]-4-carboxamide]: the melting point fell in the range of 223 to 225 °C.

The compound `CC(C)N(Cc1ccc2cc(NC(=O)c3ccc(-c4ccc(F)cc4)cc3)ccc2n1)C(C)C` [Example 135, N-[2-[(Diisopropylamino)methyl]-6-quinolinyl]-4′-fluoro[1-1′-biphenyl]-4-carboxamide] showed a melting point of 207 to 209 °C.

In turn, `Cc1ccc(-c2ccc(C(=O)Nc3ccc4nc(CN(C(C)C)C(C)C)ccc4c3)cc2)cc1` [Example 136, N-[2-[(Diisopropylamino)methyl]-6-quinolinyl]-4′-methyl [1-1′-biphenyl]-4-carboxamide] displayed a melting point of 225 to 227 °C.

For `Cc1ccc(-c2ccc(C(=O)Nc3ccc4nc(CN(C(C)C)C(C)C)ccc4c3)cn2)cc1` [Example 137, N-[2-[(Diisopropylamino)methyl]-6-quinolinyl]-6-(4-methylphenyl)nicotinamide], the melting point lay within 211 to 213 °C.

`CC(C)N(Cc1ccc2cc(NC(=O)c3ccc(-c4ccc(Cl)cc4)nc3)ccc2n1)C(C)C` [Example 138, 6-(4-Chlorophenyl)-N-[2-[(diisopropylamino)methyl]-6-quinolinyl]nicotinamide] registered a melting point of 201 to 203 °C.

In turn, `Cc1ccc(C2CCN(C(=O)Nc3ccc4nc(CN(C(C)C)C(C)C)ccc4c3)CC2)cc1` [Example 139, N-[2-[(Diisopropylamino)methyl]-6-quinolinyl]-4-(4-methylphenyl)-1-piperidinecarboxamide] displayed a melting point of 184 to 186 °C.

`CC(C)N(Cc1ccc2cc(NC(=O)N3CCC(c4ccc(Cl)cc4)CC3)ccc2n1)C(C)C` [Example 140, 4-(4-Chlorophenyl)-N-[2-[(diisopropylamino)methyl]-6-quinolinyl]-1-piperidinecarboxamide]: the melting point fell in the range of 201 to 203 °C.
